Reference: ChEMBL document CHEMBL1641546, “The discovery and structure-activity relationships leading to CE-156811, a difluorophenyl cyclopropyl fluoroether: a novel potent antibacterial analog derived from hygromycin A” (Bioorg Med Chem Lett, 2011)
In brackets after ≈: the same amount, converted by molar mass. Each block holds one compound with its values, some of them ahead of it. Activity calls are given as the source filed them. No cut-off for these calls is given here.

Experiments:
[1] = test system: Enterococcus faecium; test: Antibacterial activity against Enterococcus faecium 1022; format: functional
[2] = test system: Streptococcus pneumoniae; test: Antibacterial activity against Streptococcus pneumoniae 1016; format: functional
[3] = test system: Enterococcus faecalis; test: Antibacterial activity against Enterococcus faecalis 1085; format: functional
[4] = test system: Staphylococcus aureus; test: Antibacterial activity against Staphylococcus aureus 1095; format: functional
[5] = Clearance in rat; format: ADME, organism-based; conditions: in vivo
[6] = test system: Staphylococcus aureus; test: Antibacterial activity against glycopeptide-intermediate Staphylococcus aureus; format: functional
[7] = test system: Enterococcus faecium; test: Antibacterial activity against Enterococcus faecium infected in sc dosed in vivo acute model administered bid for 1 day; format: functional; conditions: 24 h, read-out: PD50
[8] = test system: Enterococcus faecalis; test: Antibacterial activity against Enterococcus faecalis infected in sc dosed in vivo acute model administered bid for 1 day; format: functional; conditions: 24 h, read-out: PD50
[9] = Half life in dog; format: ADME, organism-based, Canis lupus familiaris; conditions: in vivo
[10] = Half life in mouse; format: ADME, organism-based; conditions: in vivo
[11] = Clearance in mouse; format: ADME, organism-based; conditions: in vivo
[12] = test system: Streptococcus pyogenes; test: Antibacterial activity against Streptococcus pyogenes infected in sc dosed in vivo acute model administered bid for 1 day; format: functional; conditions: 24 h, read-out: PD50
[13] = Volume of distribution at steady state in rat; format: ADME, organism-based; conditions: in vivo, read-out: Vdss
[14] = test system: Enterococcus faecalis; test: Antibacterial activity against multidrug-resistant Enterococcus faecalis; format: functional
[15] = test system: Staphylococcus aureus; test: Antibacterial activity against methicillin-sensitive Staphylococcus aureus; format: functional
[16] = test system: Staphylococcus aureus; test: Antibacterial activity against methicillin-resistant Staphylococcus aureus; format: functional
[17] = test system: Streptococcus pneumoniae; test: Antibacterial activity against penicillin-resistant Streptococcus pneumoniae; format: functional
[18] = Half life in monkey; format: ADME, organism-based, Macaca mulatta; conditions: rhesus monkey, in vivo
[19] = test system: Staphylococcus epidermidis; test: Antibacterial activity against methicillin-sensitive Staphylococcus epidermidis; format: functional
[20] = Clearance in dog; format: ADME, organism-based, Canis lupus familiaris; conditions: in vivo
[21] = Clearance in monkey; format: ADME, organism-based, Macaca mulatta; conditions: rhesus monkey, in vivo
[22] = Volume of distribution at steady state in mouse; format: ADME, organism-based; conditions: in vivo, read-out: Vdss
[23] = test system: Streptococcus pneumoniae; test: Antibacterial activity against Streptococcus pneumoniae infected in sc dosed in vivo lung model administered bid for 3 day; format: functional; conditions: 72 h, read-out: PD50
[24] = test system: Staphylococcus aureus; test: Antibacterial activity against Staphylococcus aureus infected in sc dosed in vivo acute model administered bid for 1 day; format: functional; conditions: 24 h, read-out: PD50
[25] = Volume of distribution at steady state in dog; format: ADME, organism-based, Canis lupus familiaris; conditions: in vivo, read-out: Vdss
[26] = Volume of distribution at steady state in monkey; format: ADME, organism-based, Macaca mulatta; conditions: rhesus monkey, in vivo; read-out: Vdss
[27] = Oral bioavailability in mouse; format: ADME, organism-based; conditions: in vivo
[28] = test system: Enterococcus faecium; test: Antibacterial activity against multidrug-resistant Enterococcus faecium; format: functional
[29] = Half life in rat; format: ADME, organism-based; conditions: in vivo
[30] = Oral bioavailability in rat at 10 mg/kg, po and 5 mg/kg, iv; format: ADME, organism-based; conditions: in vivo
[31] = test system: Streptococcus pneumoniae; test: Antibacterial activity against Streptococcus pneumoniae infected in po dosed in vivo lung model administered bid for 3 day; format: functional; conditions: 72 h, read-out: PD50
[32] = test system: Streptococcus pyogenes; test: Antibacterial activity against Streptococcus pyogenes infected in po dosed in vivo acute model administered bid for 1 day; format: functional; conditions: 24 h, read-out: PD50
[33] = test system: Enterococcus faecalis; test: Antibacterial activity against Enterococcus faecalis infected in po dosed in vivo acute model administered bid for 1 day; format: functional; conditions: 24 h, read-out: PD50
[34] = test system: Enterococcus faecium; test: Antibacterial activity against Enterococcus faecium infected in po dosed in vivo acute model administered bid for 1 day; format: functional; conditions: 24 h, read-out: PD50

SMILES: C/C(=C\c1cc(F)c(OCCF)cc1F)C(=O)N[C@@H]1[C@H](O)[C@@H](O)[C@H]2OCO[C@H]2[C@@H]1O
MIC [1]: 25 µg/mL (≈ 57.7 µM)
MIC [2]: 6.2 µg/mL (≈ 14.3 µM)
MIC [3]: 25 µg/mL (≈ 57.7 µM)
MIC [4]: 50 µg/mL (≈ 115 µM)

SMILES: C/C(=C\c1cc(F)c(OCCC(F)F)cc1F)C(=O)N[C@@H]1[C@H](O)[C@@H](O)[C@H]2OCO[C@H]2[C@@H]1O
MIC [1]: 3.13 µg/mL (≈ 6.73 µM)
MIC [2]: 1.56 µg/mL (≈ 3.35 µM)
MIC [3]: 12.5 µg/mL (≈ 26.9 µM)
MIC [4]: 12.5 µg/mL (≈ 26.9 µM)

SMILES: C/C(=C\c1cc(F)c(OC[C@H](F)C2CC2)cc1F)C(=O)N[C@@H]1[C@H](O)[C@@H](O)[C@H]2OCO[C@H]2[C@@H]1O
clearance [5]: 10.5 mL/min/kg
MIC90 [6]: 0.125 µg/mL (≈ 0.264 µM)
ED50 [7]: 8 mg/kg
ED50 [8]: 10 mg/kg
half-life [9]: 1.9 h
half-life [10]: 1.4 h
clearance [11]: 12.1 mL/min/kg
ED50 [12]: 3 mg/kg
Vd [13]: 0.5 L/kg
MIC90 [14]: 0.5 µg/mL (≈ 1.06 µM)
MIC90 [15]: 1 µg/mL (≈ 2.11 µM)
MIC90 [16]: 0.5 µg/mL (≈ 1.06 µM)
MIC90 [17]: 0.5 µg/mL (≈ 1.06 µM)
half-life [18]: 1 h
MIC90 [19]: 0.25 µg/mL (≈ 0.528 µM)
clearance [20]: 5.4 mL/min/kg
clearance [21]: 8.6 mL/min/kg
Vd [22]: 0.52 L/kg
ED50 [23]: 23 mg/kg
ED50 [24]: 4 mg/kg
Vd [25]: 0.71 L/kg
Vd [26]: 0.59 L/kg
bioavailability [27]: 55%
MIC90 [28]: 1 µg/mL (≈ 2.11 µM)
half-life [29]: 1.3 h
bioavailability [30]: 56%

SMILES: C/C(=C\c1cc(F)c(OCC2CCC2)cc1F)C(=O)N[C@@H]1[C@H](O)[C@@H](O)[C@H]2OCO[C@H]2[C@@H]1O
MIC [1]: 6.2 µg/mL (≈ 13.6 µM)
MIC [2]: 6.2 µg/mL (≈ 13.6 µM)
MIC [3]: 12.5 µg/mL (≈ 27.4 µM)
MIC [4]: 12.5 µg/mL (≈ 27.4 µM)

SMILES: C/C(=C\c1cc(F)c(OCCC(C)(C)F)cc1F)C(=O)N[C@@H]1[C@H](O)[C@@H](O)[C@H]2OCO[C@H]2[C@@H]1O
MIC [1]: 50 µg/mL (≈ 105 µM)
MIC [2]: 25 µg/mL (≈ 52.6 µM)
MIC [3]: 100 µg/mL (≈ 210 µM)
MIC [4]: 100 µg/mL (≈ 210 µM)

SMILES: CC(=O)NC[C@H]1CN(c2ccc(N3CCOCC3)c(F)c2)C(=O)O1 [LINEZOLID]
MIC90 [6]: 0.5 µg/mL (≈ 1.48 µM)
MIC90 [14]: 1 µg/mL (≈ 2.96 µM)
ED50 [31]: 10 mg/kg
MIC90 [15]: 2 µg/mL (≈ 5.93 µM)
MIC90 [16]: 1 µg/mL (≈ 2.96 µM)
ED50 [32]: 3 mg/kg
MIC90 [17]: 1 µg/mL (≈ 2.96 µM)
ED50 [33]: 3 mg/kg
MIC90 [19]: 1 µg/mL (≈ 2.96 µM)
ED50 [34]: 4 mg/kg
MIC90 [28]: 2 µg/mL (≈ 5.93 µM)

SMILES: C/C(=C\c1cc(F)c(OCC(C)F)cc1F)C(=O)N[C@@H]1[C@H](O)[C@@H](O)[C@H]2OCO[C@H]2[C@@H]1O (some centres not stated)
MIC [1]: 3.13 µg/mL (≈ 7 µM)
MIC [2]: 60.2 µg/mL (≈ 135 µM)
MIC [3]: 60.2 µg/mL (≈ 135 µM)
MIC [4]: 6.25 µg/mL (≈ 14 µM)

The next lines start with the values.

MIC [1]: > 100 µg/mL
MIC [2]: inactive
MIC [3]: > 100 µg/mL
MIC [4]: 100 µg/mL (≈ 232 µM)
SMILES: C/C(=C\c1cc(F)c(OCCO)cc1F)C(=O)N[C@@H]1[C@H](O)[C@@H](O)[C@H]2OCO[C@H]2[C@@H]1O

MIC [1]: 0.78 µg/mL (≈ 1.74 µM)
MIC [2]: 2 µg/mL (≈ 4.47 µM)
MIC [3]: 1.56 µg/mL (≈ 3.49 µM)
MIC [4]: 1.56 µg/mL (≈ 3.49 µM)
SMILES: C/C(=C\c1cc(F)c(OCCCF)cc1F)C(=O)N[C@@H]1[C@H](O)[C@@H](O)[C@H]2OCO[C@H]2[C@@H]1O

MIC [1]: 1.6 µg/mL (≈ 3.38 µM)
MIC [2]: 0.4 µg/mL (≈ 0.845 µM)
MIC [3]: 1.6 µg/mL (≈ 3.38 µM)
MIC [4]: 1.56 µg/mL (≈ 3.3 µM)
SMILES: C/C(=C\c1cc(F)c(OCC(F)C2CC2)cc1F)C(=O)N[C@@H]1[C@H](O)[C@@H](O)[C@H]2OCO[C@H]2[C@@H]1O (some centres not stated)

MIC [1]: 6.2 µg/mL (≈ 13.1 µM)
MIC [2]: 3.1 µg/mL (≈ 6.55 µM)
MIC [3]: 6.2 µg/mL (≈ 13.1 µM)
MIC [4]: 6.2 µg/mL (≈ 13.1 µM)
SMILES: C/C(=C\c1cc(F)c(OCC2(F)CCC2)cc1F)C(=O)N[C@@H]1[C@H](O)[C@@H](O)[C@H]2OCO[C@H]2[C@@H]1O

MIC [1]: 12.5 µg/mL (≈ 30.1 µM)
MIC [2]: inactive
MIC [3]: 25 µg/mL (≈ 60.2 µM)
MIC [4]: 100 µg/mL (≈ 241 µM)
SMILES: CCOc1cc(F)c(/C=C(\C)C(=O)N[C@@H]2[C@H](O)[C@@H](O)[C@H]3OCO[C@H]3[C@@H]2O)cc1F
